Columns and labels:
NIH 3T3 fibroblasts = assay: Long-term (3-day) cell proliferation; type: cell-based; details: 0.22 M extracellular trehalose, 40 min incubation (0.5 mg/ml nanocapsules where present)
Description: For long-term cell proliferation studies, cells were seeded in 33 mm Petri dishes at a relatively low density of 1×10^5 cells/dish in 1 ml medium. At 24 h, the cells were exposed to nanocapsules in the same way as that described above for immediate cell viability studies. After cold shock, the cells were further cultured for 3 days to monitor their proliferation (long-term toxicity). This was done by taking at least 10 representative images of the samples every day including the day (taken as day 0) when the cells were exposed to nanocapsules. The total number of cells in each image were counted automatically using NIH ImageJ. […] The collagen production of cells exposed to 0 M trehalose and 0 mg/ml nanocapsules (control), 0.22 M extracellular trehalose and 0 mg/ml nanocapsules (trehalose without NE), and 0.22 M extracellular trehalose and 0.5 mg/ml extracellular nanocapsules (nanoencapsulated with trehalose) was quantified using the Sircol™ Assay kit (Biocolor, Belfast, N. Ireland). […] The absorbance at 540 nm wavelength of the dye was then measured using a BioTek Synergy 2 microplate reader (Winooski, Vt.). Collagen concentration in the collected medium was quantified by comparing its absorbance subtracted with the absorbance of the blank sample with that of the standards.

[1] = Nanoencapsulation and controlled release of trehalose (dialysis, trehalose assay kit); type: physicochemical
Description: The resultant freeze-dried mixture of extra-capsular trehalose and trehalose-loaded nanocapsules was either used immediately or stored at −20° C. for future use.
To determine whether trehalose can be withheld in the nanocapsule at 37° C. for controlled release, the freeze-dried mixture of trehalose and trehalose-loaded nanocapsules was preheated to 37° C. and dissolved in 2 ml warm water at 37° C. in a 15 ml centrifuge tube. The final overall trehalose (i.e., trehalose both inside and outside the nanocapsules) concentration in the solution was 15% (w/v) and the corresponding nanocapsule (excluding the encapsulated trehalose) concentration was 10 mg/ml. Therefore, the total amount of trehalose and nanocapsules (excluding the encapsulated trehalose) in the 2 ml solution was 0.3 and 0.02 g, respectively. The solution in the centrifuge tube was then transferred either after cooling at 22° C. (i.e., cold shocking) for 15 min or immediately into a Spectra/Por dialysis bag (MWCO, 50 kDa) and placed in a beaker containing 1 L of deionized water kept warm at 37° C. with constant stirring using a hotplate/stirrer for 5 hr. It is expected that the 15 min cooling at 22° C. followed by heating at 37° C. in the beaker should result in a quick release of nanoencapsulated trehalose as a result of the more than 15 times of volume expansion and contraction in response to the temperature variation. Control experiments were performed similarly except that 2 ml of 15% (w/v) pure trehalose solution (i.e., in the absence of nanocapsules) was used in the dialysis tube. […] Trehalose concentration in the 0.5 ml samples was determined using a trehalose assay kit (Megazyme Co., Wicklow, Ireland) by following the manufacturer's instructions. […] The absorbance at 340 nm of NADPH was then measured using a Shimazu (Columbia, Md.) UV-2101PC spectrophotometer to determine the amount of trehalose in the original sample.

3T3 fibroblasts [2] = assay: Nanocapsule assisted intracellular delivery of trehalose; type: cell-based; details: extracellular trehalose 0.165 M (nanocapsule 0.375 mg/ml where present), 40 min at 37° C.
Description: The procedures performed for cellular uptake of the trehalose loaded nanocapsules was the same as that described in section 2.6 for the uptake of empty nanocapsules. […] The cells were then detached/lysed in deionized water with the aid of a cell scraper. The cells were further lysed using three cycles of freezing and thawing in liquid nitrogen and 37° C. water bath, respectively. The lysed cell suspension was homogenized for 10 min by sonication using a Branson ultrasonic cleaner (Danbury, Conn.) followed by a brief vortex-mixing. After centrifuging at 10,000 g for 10 min, the supernatant of each sample was divided into two aliquots. One aliquot was used to determine trehalose concentration in the sample using the trehalose assay kit (Megazyme Co. Wicklow, Ireland) as described in the previous section. […] The other aliquot was used to determine cell density in the sample based on its DNA content measured using a method described in Dunn et. al, Long-term in vitro function of adult hepatocytes in a collagen sandwich configuration, Biotechnol Prog 1991 May-Jun;7(3):237-245. […] With the trehalose concentration and cell density in the sample being measured, the total amount of intracellular trehalose and the total number of cells (and thus the total osmotically active cell volume) can be calculated. Therefore, the intracellular trehalose concentration can be determined.

3T3 fibroblasts [3] = assay: Collagen production, Sircol assay; type: cell-based; details: 0.22 M extracellular trehalose, 40 min incubation (0.5 mg/ml nanocapsules where present)
Description: The immediate cell viability, proliferation, and collagen production of 3T3 cells exposed to 0.22 M extracellular trehalose and 0.5 mg/ml nanocapsules (loaded with trehalose) (As will be shown later in Results and Discussion that the intracellular trehalose is ˜0.3 M under this loading condition) were further studied to test the effectiveness of the nanocapsule based approach for intracellular delivery of trehalose. Immediate cell viability and proliferation of the 3T3 cells after loading with trehalose were studied in the same way as that described for 3T3 cells loaded with empty nanocapsules in section 2.6. The collagen production of cells exposed to 0 M trehalose and 0 mg/ml nanocapsules (control), 0.22 M extracellular trehalose and 0 mg/ml nanocapsules (trehalose without NE), and 0.22 M extracellular trehalose and 0.5 mg/ml extracellular nanocapsules (nanoencapsulated with trehalose) was quantified using the Sircol™ Assay kit (Biocolor, Belfast, N. Ireland). To do this, the cells treated under the three conditions were further cultured for 3 days. […] The absorbance at 540 nm wavelength of the dye was then measured using a BioTek Synergy 2 microplate reader (Winooski, Vt.). Collagen concentration in the collected medium was quantified by comparing its absorbance subtracted with the absorbance of the blank sample with that of the standards.

## OC[C@H]1O[C@H](O[C@H]2O[C@H](CO)[C@@H](O)[C@H](O)[C@H]2O)[C@H](O)[C@@H](O)[C@@H]1O [Trehalose w/o NE, α,α-trehalose]
NIH 3T3 fibroblasts
  3 day cell proliferation vs control: No significant differences
[1]; 2 ml of 15% (w/v) into 1 L deionized water at 37° C.
  time for trehalose release from the dialysis bag to reach equilibrium: approximately 2 hours
[1]; after one hour, 37° C.
  trehalose released from the dialysis tube: more than 80%
[1]; at 2 hr, 37° C., no cold shock
  trehalose concentration in the 1 L solution outside the dialysis tube: 0.3 g/L
3T3 fibroblasts [2]
  intracellular trehalose concentration: 0.02 M
3T3 fibroblasts [3]
  3 day collagen production vs control: No significant differences

Reference: patent US8318207B2, “Encapsulation and controlled release of small molecules for intracellular delivery using thermally responsive nanocapsules” (University of South Carolina, priority 2009, dated 2012)
